Results taken from BindingDB's records for patent US10494376 (CTXT PTY. LTD., 2019).

Molecular target: Protein arginine N-methyltransferase 5 (Homo sapiens, UniProt O14744)
Experiment: Revised Biochemical Assay
Procedure: Compounds of the invention may be tested for in vitro activity in the following assay: A histone H4 derived peptide is used as substrate (amino acid sequence: […]N H2). Full-length PRMT5 enzyme (NCBI Reference sequence NP_006100.2) was co-expressed with His6-MEP50 in insect cells and purified via Nickel immobilized metal affinity and gel filtration chromatography (the enzyme).The 6 μL reactions are run in Greiner brand black 384-well low volume assay plates. All reactions contained assay buffer (phosphate buffered saline, 0.01% (v/v) Tween-20, 0.01% (w/v) albumin from chicken egg white, 1 mM Dithiothreitol, 1 μM peptide substrate, 1 μM S-Adenosyl methionine, and 15 ng/reaction enzyme, with the enzyme being omitted from negative control reactions. Compounds were added in a volume of 100 nL from dilution series prepared in DMSO, positive and negative control reactions receiving the same volume DMSO without compound. The plates were sealed with adhesive seals and incubated for 4 hours at 37 degree Celsius. Reaction progress was measured using the Transcreener EPIGEN methyltransferase assay (BellBrook Labs, Madison, Wis.) as recommended by the manufacturer. To each reaction 2 μL detection mix were added, containing coupling enzymes, fluorescence polarisation tracer, and AMP antibody. […]

Sequence of Protein arginine N-methyltransferase 5 (O14744 whole entry): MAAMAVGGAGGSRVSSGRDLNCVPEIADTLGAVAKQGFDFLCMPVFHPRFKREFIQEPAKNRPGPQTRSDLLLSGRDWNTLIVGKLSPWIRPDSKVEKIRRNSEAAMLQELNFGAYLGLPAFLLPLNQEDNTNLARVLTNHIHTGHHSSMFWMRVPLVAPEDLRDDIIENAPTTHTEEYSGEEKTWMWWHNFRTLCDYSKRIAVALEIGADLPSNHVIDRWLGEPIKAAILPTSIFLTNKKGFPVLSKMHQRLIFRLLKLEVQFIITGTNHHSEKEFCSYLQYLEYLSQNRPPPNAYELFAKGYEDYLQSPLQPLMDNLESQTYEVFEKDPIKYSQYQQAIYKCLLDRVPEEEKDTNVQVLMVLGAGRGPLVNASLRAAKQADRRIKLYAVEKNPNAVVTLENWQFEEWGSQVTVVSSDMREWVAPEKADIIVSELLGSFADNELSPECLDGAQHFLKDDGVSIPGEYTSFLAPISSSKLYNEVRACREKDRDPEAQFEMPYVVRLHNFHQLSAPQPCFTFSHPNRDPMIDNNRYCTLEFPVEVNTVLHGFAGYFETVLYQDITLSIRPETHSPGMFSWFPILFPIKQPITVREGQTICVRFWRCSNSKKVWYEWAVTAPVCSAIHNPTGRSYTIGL

IC50: 11.7 µM
Compound: COC(=O)N1CCC(N(C)C(=O)c2ccc(C(=O)NC[C@@H](O)[C@@H]3Cc4ccccc4CN3)cc2)CC1 [US10494376, Example 20]
